Data on six compounds can be found in patent publication US5006545A, “Veterinary compositions against endoparasites containing cypermethrin and albendazole” (priority 1988, dated 1991).

Series [1] concerns Musca domestica (L3 larvas). The series is described as follows: average body mass and hatching % of fly larvas/imagos after treatment. The series is classed as in vivo. From the text:
(§1) For this purpose the activity of several pyrethroid insecticides has been tested per se or in combination with different benzimidazole type anthelmintics on flies (Musca domestica). […] This synergistic interaction was shown not only in the decrease of the therapeutical concentrations but also on the activity of the sublethal doses to the development. The body mass of the larvas is decreased and from the little aurelias evolved during the long development often deformed imagos, unsuitable for further multiplication were hatched out. Above all the synergistic interaction has made possible the decrease of the therapeutic dose of the orally administered insecticide.
(§2) For examining the interaction between benzimidazoles and pyrethroids the larvas of domestic flies in L3 status (Musca domestica WHO/SRS) were used as model organism.
(§3) A nutriment suitable for breeding fly larvas was prepared from yeast, milk, bran and water and the nutriment was portioned into plastic glasses. Acetonic strain solution was prepared from the active ingredients and after dilution the amounts necessary for achieving the desired active ingredient concentrations were added to the nutriment in the plastic glasses.
Fly larvas of L3 status were grown in identical manner as in an Example 1, on a nutriment having a total active ingredient concentration of 5 and 10 ppm.

Series [2] is described as follows: acute per os toxicity (LD50), measured on rats. As to conditions: rat, in vivo, po. The series is classed as in vivo, rat. An excerpt: (§4) The therapeutic indexes of current anthelmintics and transmix each having insecticidal activity and suitable for per os administration are shown in Table 1.
For series [3], the system named is horse bots (Gastrophylus larvas). The series is described as follows: therapeutic dose / therapeutic index against horse bots. The series is classed as in vivo, Gastrophylus species (in horses). The conditions noted are these: for Therapeutic index (selectivity): quotient of toxic (rat LD50) and therapeutic dose (horse bots). Here is the method: One of the most important characteristics of the pharmaceutical compositions is the quotient of toxic and therapeutic dosage, the so-called therapeutic index characterizing the security of use. The higher is this value, the smaller is the risk in use, the selective is the active ingredient.
On the basis of the results of the laboratory examinations and toxicity data the therapeutic dose usable for treating bot infection of horses was determined in field trials.
as §4

Series [4] has as its system Musca domestica WHO/SRS (L3 larvas). The series is described as follows: hatching of imagos from L3 fly larvas on treated nutriment. As to conditions: 12 days. The series is classed as in vivo.
From the text: as §1, §2, §3
The examinations were carried out with total active ingredient concentrations of 1, 5, 10, 50, 100 and 200 ppm in 6 parallel tests per each concentration. Into the plastic glasses containing the treated culture medium 20--20 domestic fly-larvas of L3 status were placed after mass measurement. The glasses were covered by gauze and after 12 days the hatched imagos were counted. In the control containing only solvent the hatching ratio was 91%, the average weight of the hatched flies was 18.2 mg.

Another series has as its system horses. The conditions noted are these: horses (Vet. Med., 1985, Apr., p. 68); cited from earlier work.
A further series deals with rats. The series is described as follows: acute per os toxicity (LD50), measured on rats. The class given is in vivo, rat.
From the text: as §4

Setting [5] is: 100 ppm total active ingredient.
Where [6] appears, read: 200 ppm total active ingredient.

In general, LD50 refers to the dose at which mortality reaches 50%. Read a low LD50 as a more toxic substance. Turning to `CC1(C)[C@H](C=C(Cl)Cl)[C@H]1C(=O)O[C@H](C#N)c1cccc(Oc2ccccc2)c1` (relative stereo) [Transmix, α-cyano-3-(2,2-dichlorovinyl)-2,2-dimethyl-cyclopropan-carboxylic acid-3-phenoxybenzylester], the results for the average body mass in series [1] (5 ppm total active ingredient) and in series [1] (10 ppm total active ingredient) were 12.9 and 9.6, respectively. Besides, the hatching % is 98% in series [1] (5 ppm total active ingredient) and 84% in series [1] (10 ppm total active ingredient). In addition, the 50% lethal dose (LD50) in series [2] worked out at 5000 mg/kg. Besides, in series [3], the “Therapeutic index (selectivity)” value came to 2500. In addition, the “number of hatched imagos (from 120 L3)” value is 108 in series [4] (1 ppm total active ingredient); 112 in series [4] (5 ppm total active ingredient); 89 in series [4] (10 ppm total active ingredient); 64 in series [4] (50 ppm total active ingredient); 39 in series [4] (setting [5]); 18 in series [4] (setting [6]).
Take `CCCSc1ccc2nc(NC(=O)OC)[nH]c2c1` [Albendazole, 5(6)-propylthio-benzimidazole-N-methylcarbamate]: the figures for the average body mass in series [1] (5 ppm total active ingredient) and in series [1] (10 ppm total active ingredient) were 18.3 and 17.8, respectively. The hatching % in series [1] (5 ppm total active ingredient) and in series [1] (10 ppm total active ingredient) was 100% each time. Moreover, the “number of hatched imagos (from 120 L3)” value in series [4] (1 ppm total active ingredient) was 111; in series [4] (5 ppm total active ingredient), 113; in series [4] (10 ppm total active ingredient), 107; in series [4] (50 ppm total active ingredient), 112; in series [4] (setting [5]), 107; in series [4] (setting [6]) it was 109.
Consider `CC1(C)C(C=C(Cl)Cl)C1C(=O)OC(C#N)c1cccc(Oc2ccccc2)c1` (stereo not drawn) [Chinmix, α-cyano-3-(2,2-dichlorovinyl)-2,2-dimethyl-cyclopropan-carboxylic acid-3-phenoxybenzylester], for which the average body mass in series [1] (5 ppm total active ingredient) was found to be 10.3; in series [1] (10 ppm total active ingredient) it was 7.8. The figures for the hatching % in series [1] (5 ppm total active ingredient) and in series [1] (10 ppm total active ingredient) were 53% and 41%, respectively. For the same compound, the “number of hatched imagos (from 120 L3)” value was determined as 90 in series [4] (1 ppm total active ingredient); 62 in series [4] (5 ppm total active ingredient); 47 in series [4] (10 ppm total active ingredient); 27 in series [4] (50 ppm total active ingredient); 4 in series [4] (setting [5]); 0 in series [4] (setting [6]).
In series [2], `COP(=O)(OC)OC=C(Cl)Cl` [Dichlorvos, 2,2-dichlorovinyl-phosphonic acid dimethylester] showed a 50% lethal dose (LD50) of 56 mg/kg. In addition, in series [3], the “Therapeutic index (selectivity)” value is listed as 11.
Take `COP(=O)(OC)C(O)C(Cl)(Cl)Cl` (stereo not drawn) [Trichlorfon, 2,2,2-trichloro-1-hydroxyethyl-phosphonic acid dimethylester]: the “side effects accompanying treatment” value with horses is “diarrhoea, frequent defecation and urination”. In series [2], this compound had a median lethal dose (LD50) of 450 mg/kg. In addition, the “Therapeutic index (selectivity)” value in series [3] was determined as 15.
With dihydro-avermectine B1 [Ivermectine], the “Toxicity acute per os LD50” value in the series with rats is 10 mg/kg. This compound yielded a Therapeutic dose in series [3] (against horse bots, per os) of 0.2 mg/kg.
